According to patent US10065957B2, “Beta-lactamase inhibitors” (Novartis AG, priority 2016, dated 2018):
Counter-ions that a name gives are not always drawn. Like-named read-outs stand apart in the source and are kept apart here.

Experiments:
Format in all cases: cell-based
[1] = test system: K. pneumoniae NB29323 (CTX-M-15, OXA-48, VEB-1); settings: aztreonam alone
Method: (§1) MICs were determined by the broth microdilution method in accordance with Clinical and Laboratories Institute (CLSI) guidelines. In brief, fresh overnight bacterial cultures were suspended in sterile saline, and adjusted to a 0.5 McFarland turbidity standard. Bacterial suspensions were then diluted in cation adjusted Mueller-Hinton Broth (MHB II; BBL) to yield a final inoculum of approximately 5×10^5 colony-forming units (CFU)/mL. A master plate of antibiotics was prepared at a concentration equivalent to hundred-fold the highest desired final concentration in 100% dimethyl sulfoxide (DMSO). The master antibiotic plate was then diluted by serial twofold dilution with a multichannel pipette. The resulting dilution series of compounds were diluted 1:10 with sterile water or a solution of beta-lactamase inhibitor prepared at a concentration equivalent to eleven-fold the desired final concentration in deionized water leading to a 10% DMSO final concentration. A volume of 10 μL of the drug dilution series was transferred to 96-well assay plates. Assay plates were inoculated with 90 μL of bacterial suspensions and incubated at 35° C. for 20 hrs. The assay plates were read using a microtiter plate reader (Molecular Devices) at 600 nm as well as by visual observation with a reading mirror. The lowest concentration of the compound that prevented visible growth was recorded as the MIC. Performance of the assay was monitored by testing aztreonam against laboratory quality control strains in accordance with guidelines of the CLSI.
(§2) Synergy or potentiation of beta-lactam antibiotics through inhibition of Q-lactamases was assessed against an isogenic panel of E. coli strains, each expressing a unique beta-lactamase, and against clinical strains.

E. coli (AmpC) = assay: microbe, parasite or virus in culture; settings: for MIC: Escherichia coli
Method: as §1, §2
The gene encoding AmpC was PCR amplified from the genome of strain P. aeruginosa PAO1 (NB52019) (GenBank ID U5R279) using primer pair E252 (gccCTCGAGggcgaggccccggcggatcgc) (SEQ ID NO: 17) and E253 (tgaGAATTCtcagcgcttcagcggcacct) (SEQ ID NO: 18).
The PCR products were then digested with XhoI and EcoRI and ligated into similarly digested plasmid pAH63-pstS(BlaP). Plasmid pAH63-pstS(BlaP) is a derivative of plasmid pAH63 (J Bacteriol: 183(21): 6384-6393) made by cloning the TEM-1 (bla) promoter and signal peptide encoding region from plasmid pBAD (J Bacteriol. 1995 July 177(14):4121-30) into plasmid pAH63. This fragment was PCR amplified from pBAD using primer pair E192 (ttcaCTGCAGtgaacgttgcgaagcaacggC) (SEQ ID NO:19) and E194 (TCGAggatcctcgagagcaaaaacaggaaggcaaaatgccg) (SEQ ID NO:20), digested with PstI and BamHI and inserted into similarly digested plasmid pAH63. Therefore, expression of beta-lactamases from pAH63-pstS(BlaP) based constructs is constitutive and the signal sequence is provided to direct these proteins to the periplasm. Plasmid pAH63 based vectors are used for insertion into the genome in single copy, however, to provide higher expression levels to allow more sensitive detection of the susceptibility of compounds to the expressed beta-lactamases, the expression inserts contained in these vectors were moved to the replicative multicopy vector pBAD-Kan (J Bacteriol. 1995 July 177(14):4121-30). To accomplish this, the inserts encompassing the beta-lactamase genes, with the associated TEM promoter and signal sequences, were PCR amplified from their corresponding vectors using primer E268 (ccgTCTAGAcggatggcctttttgcgtttc) (SEQ ID NO:21) and E202 (aatcGAATTCttactgaccattaacgcccaagc) (SEQ ID NO:22) for the KPC2 construct, E204 (aatcGAATTCttaacgctgccagtgctcaatc) (SEQ ID NO:23) for the SHV-12 construct and E203 (aatcGAATTCttacagaccgtcggtgacaatc) (SEQ ID NO:24) for the CTX-M-15 construct. These fragments were then digested with XbaI and EcoRI, and each was inserted into pBAD18-kan that had been digested with the same enzymes to generate multicopy vectors expressing KPC-2, SHV-12 and CTX-M-15, respectively. […]

E. coli (CTX-M-15) = assay: microbe, parasite or virus in culture
Method: as §1, with “MIC.” for “MIC. Performance of the assay was monitored by testing aztreonam against laboratory quality control strains in accordance with guidelines of the CLSI.”
as §2
(§3) Strain NB27273 (BW25113 pspB::Km^r) was obtained from the Keio transposon insertion collection. The strain has the pspB gene replaced by a kanamycin resistance marker (BW25113 pspB::Km^r). This strain was cured of the transposon in pspB via FLP recombinase using published methodology. The resulting strain, BW25113 pspB, was used as a host for multicopy vectors expressing key beta-lactamases. Multicopy plasmids directing constitutive expression of beta-lactamases were established as follows: Synthetic, codon optimized genes encoding E. coli KPC-2, SHV-12 and CTX-M-15 beta-lactamases were made by DNA2.0 (Palo Alto, Calif.). Each of the synthetic fragments were designed to contain NotI and NcoI restriction sites at their termini, allowing ligation into a NotI/NcoI digested pET28a(+) derivative for protein expression. […] The codon optimized nucleotide sequences and relevant primer recognition information is shown below:
(§4) The PCR products were then digested with XhoI and EcoRI and ligated into similarly digested plasmid pAH63-pstS(BlaP). […] Therefore, expression of beta-lactamases from pAH63-pstS(BlaP) based constructs is constitutive and the signal sequence is provided to direct these proteins to the periplasm. […] These fragments were then digested with XbaI and EcoRI, and each was inserted into pBAD18-kan that had been digested with the same enzymes to generate multicopy vectors expressing KPC-2, SHV-12 and CTX-M-15, respectively. These vectors were transformed into BW25113 pspB to generate strains NB27273-CDY0033 (expressing KPC-2), NB27273-CDY0030 (expressing SHV-12), NB27273-CDY0034 (expressing CTX-M-15) and NB27273-CDY0036 (expressing AmpC). The pBAD18-kan vector also contains the TEM promoter region and signal sequence, (but lacks any intact beta-lactamase genes) and was transformed into BW25113 pspB using standard protocols to generate the control strain NB27273-CDY0026.

E. coli (SHV-12) = assay: microbe, parasite or virus in culture
Method: as §1, with “MIC.” for “MIC. Performance of the assay was monitored by testing aztreonam against laboratory quality control strains in accordance with guidelines of the CLSI.”
as §2, §3, §4

E. coli (OXA-18) = assay: microbe, parasite or virus in culture; settings: for MIC of piperacillin with beta-lactamase inhibitor: Pip + BLI at 2 μg/mL
Method: as §1, with “MIC.” for “MIC. Performance of the assay was monitored by testing aztreonam against laboratory quality control strains in accordance with guidelines of the CLSI.”
as §2
(§5) Construction of E. coli isogenic strains, NB27273-CDY0105 (OXA-18) and NB27273-CDY0048 (TEM-10). […] The gene encoding OXA-18 was then digested with XhoI and EcoRI and inserted into this vector, from which the gene for GIM-1 had been removed with XhoI and EcoRI.
(§6) These final vectors for expression of OXA-18 and TEM-10 were transformed into BW25113 pspB to generate strains NB27273-CDY0105 (expressing OXA-18) and NB27273-CDY0048 (expressing TEM-10).

E. coli (TEM-10) = assay: microbe, parasite or virus in culture
Method: as §1, with “MIC.” for “MIC. Performance of the assay was monitored by testing aztreonam against laboratory quality control strains in accordance with guidelines of the CLSI.”
as §2, §5
From this template DNA, three fragments were generated by PCR using the following primer pairs;
This fragment was then digested with XbaI and EcoRI and inserted into pBAD-kan which was also cut with the same enzymes.
as §6

K. pneumoniae ATCC 43816 = assay: MIC by broth microdilution, BLI alone; settings: Klebsiella pneumoniae, ATCC43816, read-out: Minimal Inhibitory Concentrations (MIC) of selected BLIs
Method: as §1

P. aeruginosa ATCC 27853 = assay: MIC by broth microdilution, BLI alone; settings: Pseudomonas aeruginosa, ATCC27853, read-out: Minimal Inhibitory Concentrations (MIC) of selected BLIs
Method: as §1

E. coli ATCC 25922 = assay: MIC by broth microdilution, BLI alone; settings: Escherichia coli, ATCC25922, read-out: Minimal Inhibitory Concentrations (MIC) of selected BLIs
Method: as §1

E. coli (KPC-2) = assay: microbe, parasite or virus in culture; settings: E. coli (KPC-2)
Method: as §1, with “MIC.” for “MIC. Performance of the assay was monitored by testing aztreonam against laboratory quality control strains in accordance with guidelines of the CLSI.”
as §2, §3, §4

[2] = Escherichia coli, Mero alone, read-out: MIC of meropenem

With `C[C@H]1[C@H](NC(=O)/C(=N\OC(C)(C)C(=O)O)c2csc(N)n2)C(=O)N1S(=O)(=O)O` [Aztreonam] the Activity of aztreonam [1] was greater than 64 µg/mL and the MIC (E. coli (AmpC); read-out: MIC of aztreonam, AZ alone) was 4 µg/mL.

Ceftazidime showed an MIC of ceftazidime (E. coli (CTX-M-15); ceftazidime alone) of 16 µg/mL, an MIC of ceftazidime (E. coli (SHV-12); ceftazidime alone) greater than 64 µg/mL and an MIC of ceftazidime (E. coli (OXA-18); ceftazidime alone) greater than 64 µg/mL. It also gave an MIC of ceftazidime (E. coli (AmpC); ceftazidime alone) of 4 µg/mL and an MIC of ceftazidime (E. coli (TEM-10); ceftazidime alone) greater than 64 µg/mL.

`O=C1NCC[C@@H]2C[C@@H]3CN(C(=O)N3OS(=O)(=O)[O-])[C@H]12.[Na+]` [Example 7, Sodium (4R,5aR,9aS)-2,9-dioxooctahydro-1,4-methanopyrido[3,4-d][1,3]diazepin-3(2H)-yl hydrogen sulfate] was tested, and the “MIC of piperacillin with beta-lactamase inhibitor” value (E. coli (OXA-18)) was 8 µg/mL, the MIC (K. pneumoniae ATCC 43816) was greater than 64 µg/mL and the MIC (P. aeruginosa ATCC 27853) was greater than 64 µg/mL. For the same compound, the MIC (E. coli ATCC 25922) was greater than 64 µg/mL.

`C[C@@H](O)[C@H]1C(=O)N2C(C(=O)O)=C(S[C@@H]3CN[C@H](C(=O)N(C)C)C3)[C@H](C)[C@H]12` [Meropenem] gave an MIC (E. coli (KPC-2); [2]) of 1 µg/mL, an MIC (E. coli (CTX-M-15); [2]) of no more than 0.06 µg/mL and an MIC (E. coli (SHV-12); [2]) of no more than 0.06 µg/mL. The MIC (E. coli (OXA-18); [2]) was no more than 0.06 µg/mL, the MIC (E. coli (AmpC); Mero alone, read-out: MIC of meropenem) was no more than 0.06 µg/mL and the MIC (E. coli (TEM-10); [2]) was no more than 0.06 µg/mL.

With `Nc1nc(/C(=N/OC2(C(=O)O)CC2)C(=O)N[C@@H]2C(=O)N(S(=O)(=O)O)[C@@H]2CN2CCOC2=O)cs1` [Beta-Lactam 5] the “Activity of Beta-Lactam 5” value (E. coli (KPC-2); Beta-Lactam 5 alone) was 0.25 µg/mL, the “Activity of Beta-Lactam 5” value (E. coli (CTX-M-15); Beta-Lactam 5 alone) was 0.125 µg/mL and the “Activity of Beta-Lactam 5” value (E. coli (SHV-12); Beta-Lactam 5 alone) was 0.5 µg/mL. The “Activity of Beta-Lactam 5” value (E. coli (OXA-18); Beta-Lactam 5 alone) was 0.5 µg/mL, the “Activity of Beta-Lactam 5” value (E. coli (AmpC); Beta-Lactam 5 alone) was 0.25 µg/mL and the “Activity of Beta-Lactam 5” value (E. coli (TEM-10); Beta-Lactam 5 alone) was 2 µg/mL.

`CN1C[C@@H]2C[C@@H]3CN(C(=O)N3OS(=O)(=O)[O-])[C@@H]2C1=O.[Na+]` [Example 2, Sodium (4R,5aS,8aS)-7-methyl-2,8-dioxohexahydro-2H-1,4-methanopyrrolo[3,4-d][1,3]diazepin-3(4H)-yl sulfate] was tested, and the “MIC of piperacillin with beta-lactamase inhibitor” value (E. coli (OXA-18)) was 4 µg/mL, the MIC (K. pneumoniae ATCC 43816) was greater than 64 µg/mL and the MIC (P. aeruginosa ATCC 27853) was greater than 64 µg/mL. For the same compound, the MIC (E. coli ATCC 25922) was greater than 64 µg/mL.

`COC[C@@H]1NC(=O)[C@@H]2[C@H]1C[C@@H]1CN2C(=O)N1OS(=O)(=O)[O-].[Na+]` [Example 8, Sodium (4R,5aS,6R,8aS)-6-(methoxymethyl)-2,8-dioxohexahydro-2H-1,4-methanopyrrolo[3,4-d][1,3]diazepin-3(4H)-yl hydrogen sulfate] gave an MIC (K. pneumoniae ATCC 43816) greater than 64 µg/mL, an MIC (P. aeruginosa ATCC 27853) greater than 64 µg/mL and an MIC (E. coli ATCC 25922) greater than 64 µg/mL.

In the case of `NCCN1C[C@@H]2C[C@@H]3CN(C(=O)N3OS(=O)(=O)O)[C@@H]2C1=O` [Example 5, (4R,5aS,8aS)-7-(2-aminoethyl)-2,8-dioxohexahydro-2H-1,4-methanopyrrolo[3,4-d][1,3]diazepin-3(4H)-yl hydrogen sulfate], the MIC (K. pneumoniae ATCC 43816) is reported as greater than 64 µg/mL, the MIC (P. aeruginosa ATCC 27853) is reported as greater than 64 µg/mL and the MIC (E. coli ATCC 25922) is reported as greater than 64 µg/mL.

With `O=C1[C@@H]2[C@@H](C[C@@H]3CN2C(=O)N3OS(=O)(=O)[O-])CN1C1CC1.[Na+]` [Example 3, Sodium (4R,5aS,8aS)-7-cyclopropyl-2,8-dioxohexahydro-2H-1,4-methanopyrrolo[3,4-d][1,3]diazepin-3(4H)-yl sulfate] the “MIC of piperacillin with beta-lactamase inhibitor” value (E. coli (OXA-18)) was 4 µg/mL, the MIC (K. pneumoniae ATCC 43816) was greater than 64 µg/mL and the MIC (P. aeruginosa ATCC 27853) was greater than 64 µg/mL. For the same compound, the MIC (E. coli ATCC 25922) was greater than 64 µg/mL.

`CCCN1C[C@@H]2C[C@@H]3CN(C(=O)N3OS(=O)(=O)[O-])[C@@H]2C1=O.[Na+]` [Example 6, Sodium (4R,5aS,8aS)-2,8-dioxo-7-propylhexahydro-2H-1,4-methanopyrrolo[3,4-d][1,3]diazepin-3(4H)-yl sulfate] was tested, and the MIC (K. pneumoniae ATCC 43816) was greater than 64 µg/mL, the MIC (P. aeruginosa ATCC 27853) was greater than 64 µg/mL and the MIC (E. coli ATCC 25922) was greater than 64 µg/mL.

With `O=C1[C@@H]2[C@@H](C[C@@H]3CN2C(=O)N3OS(=O)(=O)[O-])CN1CCO.[Na+]` [Example 4, Sodium (4R,5aS,8aS)-7-(2-hydroxyethyl)-2,8-dioxohexahydro-2H-1,4-methanopyrrolo[3,4-d][1,3]diazepin-3(4H)-yl sulfate] the MIC (K. pneumoniae ATCC 43816) was greater than 64 µg/mL, the MIC (P. aeruginosa ATCC 27853) was greater than 64 µg/mL and the MIC (E. coli ATCC 25922) was greater than 64 µg/mL.
